Measured values taken from US20260294922A1, “Inhibitors of JUN N-Terminal Kinases (JNK1, JNK2, and/or JNK3) and Mitogen-Activated Protein Kinases (MAPK8, MAPK9, and/or MAPK10) and Methods of Using Same” (Baylor College of Medicine, priority 2023, published 2026).
“Also recorded” adds a separate entry of the source.

What was measured:
[1] = Phase 1 volunteers / IPF; cited from earlier work
JNK1 [2] = biological target: T1, JNK1 (Homo sapiens, UniProt P45983); test: JNK1 kinase (intrinsic ATPase, Kinase-Glo) assay; type: biochemical; details: Table 3b; read-out: Ki(app) JNK1
Outline: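 Full-length construct not stated; kinases hydrolyse ATP without peptide substrate, reaction run 30 or 60 min at 30° C, remaining ATP read by Kinase-Glo luminescence with no-kinase controls. Apparent Ki from normalized fractional activities fitted to modified Morrison tight-binding equation; orthogonal LanthaScreen binding assay gave IC50.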

JNK1 (MAPK8) = biological target: T2, JNK1 (MAPK8) (Homo sapiens, UniProt P45983); test: Eurofins KdSelect, JNK1 (MAPK8); type: binding; details: Table 2; IC50 nM; read-out: JNK1 (MAPK8), based on Kd select results
T2 construct: purchased Eurofins (KdSelect service)

JNK3 (MAPK10) = biological target: T3, JNK3 (MAPK10) (Homo sapiens, UniProt P53779); test: Eurofins KdSelect, JNK3 (MAPK10); type: binding; details: Table 2; IC50 nM; read-out: JNK3 (MAPK10), based on Kd select results
T3 construct: purchased Eurofins (KdSelect service)

JNK3 = JNK3 (Homo sapiens, UniProt P53779); test: JNK3 kinase (intrinsic ATPase, Kinase-Glo) assay; type: biochemical; details: Table 3b; read-out: Ki(app) JNK3
JNK1 [3] = biological target: T1, JNK1; test: Promega NanoBRET intracellular target engagement (tracer K10 displacement), JNK1; type: cell-based; details: cyano group
MEK4 = biological target: T4, MEK4 (Homo sapiens, UniProt P45985); test: KINOMEscan, MEK4; type: binding
T4 construct: purchased ThermoFisher (SelectScreen)
T4 sequence (P45985 1-399): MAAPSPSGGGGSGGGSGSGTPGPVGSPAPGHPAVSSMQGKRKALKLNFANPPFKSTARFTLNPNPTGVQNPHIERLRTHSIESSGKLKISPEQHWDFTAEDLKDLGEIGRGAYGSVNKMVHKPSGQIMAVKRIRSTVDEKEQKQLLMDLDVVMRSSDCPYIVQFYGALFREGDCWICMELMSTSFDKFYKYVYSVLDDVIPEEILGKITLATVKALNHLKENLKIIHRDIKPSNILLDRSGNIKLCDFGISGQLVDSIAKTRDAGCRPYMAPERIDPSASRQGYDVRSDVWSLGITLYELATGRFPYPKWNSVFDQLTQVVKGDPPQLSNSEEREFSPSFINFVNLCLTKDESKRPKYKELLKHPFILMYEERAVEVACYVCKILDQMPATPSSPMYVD

[4] = system: 12Z endometriotic epithelial cells; test: IL-1β-stimulated pro-inflammatory gene expression (qPCR) in 12Z cells; type: cell-based, human; details: relative to bentamapimod
From the text: These studies indicate that NanoBRET assays are an innovative technical platform to measure target engagement of CDD JNK inhibitors with the target JNK1, JNK2 or JNK3. As further evidence that JNK inhibitors address disease-relevant endpoints, biological responses of JNK inhibitors are provided herein, as measured in target tissue cellular models. 12Z immortalized endometriotic epithelial cells and patient-derived endometriotic stromal cells have been cultured with reference compound bentamapimod, CDD-2628, and CDD-2728. To exemplify the effects of CDD-2628 and CDD-2728 in the endometrial cell cultures, gene expression was measured using qPCR (expressed as fold-change relative to GAPDH, a housekeeping gene that is not affected by culture treatment effects) that reflect synthesis of inflammatory lipids (PTGS2), transformation of cells to a more migration and invasive potential (MMP-3) and chemoattractant cytokines to recruit pro-inflammatory immune cells (IL-6, IL-8).
In the culture systems employed in FIGS. 12A-12J, FIGS. 13A-13B, FIGS. 14A-14H, FIGS. 15A-15H, and FIGS. 16A-16F, the treatment of cells with IL-1β is used to mimic the peritoneal environment where IL-1β is most frequently measured at higher concentrations in patients with endometriosis (0.1 ng/mL-1 ng/mL) than in unaffected women (<0.01 ng/mL). The use of IL-1β to mimic the pro-inflammatory environment is a common method in cellular assays for endometriosis research. Although the concentrations of IL-1β in these cell cultures are higher than measured in peritoneal fluid, there are multiple other pro-inflammatory cytokines in peritoneal fluid that contribute to the pro-inflammatory environment.
Specifically, 12Z cells were plated at a density of 1×10^5 cells/well in a 12-well tissue culture plate, serum-starved overnight (17-18 h), pre-treated with vehicle (DMSO) or JNK inhibitor for 30 minutes, then stimulated with 10 ng/ml IL-1β in the presence or absence of the JNK inhibitors for 6 hours. After the 6-hour treatment, mRNA was extracted from the cells using the Qiagen RNEasy mini isolation kit and […] of mRNA was reverse transcribed into cDNA using the qScript cDNA Supermix (Quanta Biosciences). cDNA was amplified using SYBR Green Master Mix (Applied Biosystems) with quantitative Real Time PCR (BioRad CFX) using pre-designed and validated primers specific for genes encoding IL6, IL8, PTGS2/COX2, and MMP3 (BioRad). Relative quantification of these specific genes was calculated by the ΔΔCt method, normalizing their abundance relative to the internal housekeeping gene, GAPDH, followed by quantification relative to the vehicle-treated cells. Statistical analyses and visualizations were performed using a One Way ANOVA with a Tukey's multiple comparison post-hoc test on GraphPad Prism version 9.

JNK2 = JNK2 (Homo sapiens, UniProt P45984); test: JNK2 kinase (intrinsic ATPase, Kinase-Glo) assay; type: biochemical; details: Table 3b; read-out: Ki(app) JNK2
Other MAPK = test: Eurofins KdSelect, other MAPK; type: binding; details: Table 2; IC50 nM; read-out: Other MAPK, based on Kd select results
From the text: The next step was to confirm that the compounds that bound to JNK1, JNK2 or JNK3 in a competitive manner, relative to bentamapimod, were inhibitors of the ATP-dependent kinase activity in assays. In many cases, the results have been replicated at ThermoFisher using their SelectScreen technology platform. Based on knowledge about JNK inhibitors, and the results of DEC-Tec selections, a target compound profile was developed (Table 2).
The efficacy and selectivity of BEND and TANZ were used to define a realistic preliminary target compound profile (Table 2) for the next generation of JNK1-3 inhibitors for the treatment of endometriosis.

JNK2 (MAPK9) = biological target: T5, JNK2 (MAPK9) (Homo sapiens, UniProt P45984); test: Eurofins KdSelect, JNK2 (MAPK9); type: binding; details: Table 2; IC50 nM; read-out: JNK2 (MAPK9), based on Kd select results
T5 construct: purchased Eurofins (KdSelect service)

480 kinases = test: Eurofins KINOMEscan selectivity profile; type: binding; details: Bentamapimod and Tanzisertib at 1 μM; listed as BEND

T1 sequence (P45983 whole entry): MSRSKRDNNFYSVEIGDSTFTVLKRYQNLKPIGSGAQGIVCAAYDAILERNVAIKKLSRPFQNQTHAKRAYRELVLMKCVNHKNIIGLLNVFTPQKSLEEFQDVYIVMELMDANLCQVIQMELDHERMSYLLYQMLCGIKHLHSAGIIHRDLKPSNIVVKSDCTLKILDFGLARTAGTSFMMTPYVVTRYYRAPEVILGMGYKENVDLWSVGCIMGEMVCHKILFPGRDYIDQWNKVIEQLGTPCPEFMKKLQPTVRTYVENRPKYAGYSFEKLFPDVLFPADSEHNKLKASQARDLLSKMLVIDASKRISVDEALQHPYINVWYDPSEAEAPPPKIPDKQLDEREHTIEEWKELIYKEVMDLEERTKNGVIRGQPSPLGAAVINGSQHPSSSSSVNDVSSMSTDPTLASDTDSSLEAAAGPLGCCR
Sequence of JNK2 (P45984 whole entry): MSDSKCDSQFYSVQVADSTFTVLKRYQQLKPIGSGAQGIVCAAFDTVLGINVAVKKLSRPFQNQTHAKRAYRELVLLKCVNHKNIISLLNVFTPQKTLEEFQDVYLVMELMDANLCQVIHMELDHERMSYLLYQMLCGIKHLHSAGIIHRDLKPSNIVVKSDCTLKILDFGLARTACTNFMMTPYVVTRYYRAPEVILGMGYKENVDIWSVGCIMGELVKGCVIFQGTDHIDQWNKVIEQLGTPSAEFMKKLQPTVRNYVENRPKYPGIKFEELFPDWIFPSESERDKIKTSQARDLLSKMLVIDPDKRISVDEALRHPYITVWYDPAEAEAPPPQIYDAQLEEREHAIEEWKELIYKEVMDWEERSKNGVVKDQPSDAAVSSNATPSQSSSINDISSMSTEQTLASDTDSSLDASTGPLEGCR
T5 sequence (P45984 whole entry): as above
T2 sequence (P45983 whole entry): as the sequence (P45983 whole entry) above
T3 sequence (P53779 whole entry): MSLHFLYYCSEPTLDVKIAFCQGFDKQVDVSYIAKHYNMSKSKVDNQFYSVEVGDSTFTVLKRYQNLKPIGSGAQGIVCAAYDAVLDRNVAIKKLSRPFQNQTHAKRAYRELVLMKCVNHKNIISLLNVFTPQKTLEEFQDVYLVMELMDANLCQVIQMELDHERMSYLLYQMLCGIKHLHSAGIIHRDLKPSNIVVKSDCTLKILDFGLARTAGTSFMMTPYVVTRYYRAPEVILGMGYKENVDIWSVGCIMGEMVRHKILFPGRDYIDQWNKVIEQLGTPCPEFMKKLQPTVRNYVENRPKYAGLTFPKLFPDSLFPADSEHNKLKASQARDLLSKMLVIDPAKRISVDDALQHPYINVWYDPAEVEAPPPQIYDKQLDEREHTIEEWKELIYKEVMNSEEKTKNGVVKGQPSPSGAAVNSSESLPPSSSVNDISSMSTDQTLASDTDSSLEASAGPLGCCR
Sequence of JNK3 (P53779 whole entry): as above

- Ki (JNK1 [2]): 220 nM
- Kd (JNK1 (MAPK8)): 270 nM
- Kd (JNK3 (MAPK10)): 130 nM
- Ki (JNK3): 39 nM
- interference with NanoBRET readout (JNK1 [3]): interferes with the assay readout
- MEK4 inhibition in KINOMEscan (MEK4): does not inhibit MEK4
- Ki (JNK2): 640 nM
- Kd (Other MAPK): > 1000 nM
- Kd (JNK2 (MAPK9)): 170 nM
SMILES: N#CC(c1ccnc(OCc2ccc(CN3CCOCC3)cc2)n1)c1nc2ccccc2s1 (centres unmarked) [CDD-939, bentamapimod]
- clinical safety [1]: deemed safe
- PTGS2 expression [4]: concentration-dependent decreases
- IL-6 expression ([4]; listed as Bentamapimod): concentration-dependent decreases
- IL-6 expression ([4]; listed as bentamapimod): equally effective
- KINOMEscan selectivity / inhibition (480 kinases): JNK1-3 (CMGC family), were inhibited; also recorded: highly selective
